# Target: T1, Recombinant human JARID1B/KDM5B (Homo sapiens, UniProt Q9UGL1)
# T1 construct: purchased Active Motif 31432; host or cells: Sf9 insect cells
# Test: LANCE Ultra TR-FRET demethylase assay with FLAG-tagged JARID1B
# Type: biochemical
# Settings: 100 nM compound; 500 nM biotinylated H3K4me3 peptide substrate
# Description: FLAG-tagged JARID1B (also known as KDM5B) protein was screened against more than 170 compounds. For this compound screening, LANCE Ultra time-resolved fluorescence resonance energy transfer (TR-FRET) assay was employed using an europoium (Eu)-labeled antibody that can specifically recognize mono- or dimethylated peptides (H3K4me2/1) and ULight-streptavidin (ULight-SA), a small molecule fluorescent dye. When irradiated at 340 nm, the energy from the Eu donor is transferred to the ULight acceptor dye which, in turn, emits light primarily at 665 nm. The ratio between the intensity of primary emission at 665 nm and that of secondary emission at 590 nm was used to quantify the level of lysine methylation. As JARID1B removes more methyl moieties from tri-methylated substrate peptides (H3K4me3), the ratio increases until the enzyme reaction is terminated. In case, therefore, the compounds disrupt the enzymatic activity completely, the ratio becomes equal to a background value.
# Recombinant human JARID1B/KDM5B (accession number NP_006609) of molecular weight 179.9 KDa was expressed in Sf9 insect cells and contains an N-terminal FLAG tag. The enzyme was obtained from Active Motif (Catalog No. 31432). The tri-methylated histone substrate peptide of purity greater than 95% was a synthetic peptide in which the first 21 amino acids correspond to the human histone H3 sequence with three extra amino acids and a biotin motif (GGK-biotin) linked to the C-terminus [sequence: ART-K (Me3)-QTARKSTGGKAPRKQLA-GGK-biotin-OH], (AnaSpec, Fremont, Calif. Catalog. No. ANA-1413). The reference inhibitory compound tranylcypromine (or trans-2-phenylcyclopropylamine hydrochloride, also known as, 2-PCPA) was purchased from Sigma (St. Louis, Mo. Cat. no. P8511). ULight-labeled streptavidin (ULight-SA, Catalog no. TRF0102), Eu-W1024-labeled anti-methyl-Histone H3 Lysine 4 (H3K4me1-2) Antibody (Catalog no. TRF0402), and LANCE detection buffer 10× (Catalog no. CR97-100) were obtained from PerkinElmer (Montreal, Quebec, Canada). The TR-FRET experiments were carried out in white, low-volume 384-wellplates purchased from PerkinElmer (ProxiPlate-384 Plus, Catalog no. 6008280).
# The TR-FRET signal was measured in the presence both of the bio-H3K4me3 peptide and FLAG-JARID1B by detecting any H3K4me2/1 peptide produced in the assay system. Assays using only the bio-H3K4me2 peptide were served as a positive control. Robust enzymatic progressions were observed by using JARID1B at concentrations ranging from 10 to 30 nM. In a typical TR-FRET experiment, JARID1B was pre-incubated with or without 20 uM, 1 uM, or 0.1 uM of test-compounds (containing 1% DMSO final) for […]. The enzymatic reactions were initiated by the addition of 500 nM biotinylated H3K4me3 peptide substrate plus 500 uM of 2-OG, 25 uM Fe(II) and 2 mM ascorbate. The reaction buffer also contained 50 mM Hepes (pH7.5), 0.01% (v/v) Tween 20, and 50 mM NaCl. The reaction mixture was incubated for […] at room temperature before reading on an EnVision plate reader (PerkinElmer, Waltham, Mass.).
# T1 sequence (Q9UGL1 whole entry): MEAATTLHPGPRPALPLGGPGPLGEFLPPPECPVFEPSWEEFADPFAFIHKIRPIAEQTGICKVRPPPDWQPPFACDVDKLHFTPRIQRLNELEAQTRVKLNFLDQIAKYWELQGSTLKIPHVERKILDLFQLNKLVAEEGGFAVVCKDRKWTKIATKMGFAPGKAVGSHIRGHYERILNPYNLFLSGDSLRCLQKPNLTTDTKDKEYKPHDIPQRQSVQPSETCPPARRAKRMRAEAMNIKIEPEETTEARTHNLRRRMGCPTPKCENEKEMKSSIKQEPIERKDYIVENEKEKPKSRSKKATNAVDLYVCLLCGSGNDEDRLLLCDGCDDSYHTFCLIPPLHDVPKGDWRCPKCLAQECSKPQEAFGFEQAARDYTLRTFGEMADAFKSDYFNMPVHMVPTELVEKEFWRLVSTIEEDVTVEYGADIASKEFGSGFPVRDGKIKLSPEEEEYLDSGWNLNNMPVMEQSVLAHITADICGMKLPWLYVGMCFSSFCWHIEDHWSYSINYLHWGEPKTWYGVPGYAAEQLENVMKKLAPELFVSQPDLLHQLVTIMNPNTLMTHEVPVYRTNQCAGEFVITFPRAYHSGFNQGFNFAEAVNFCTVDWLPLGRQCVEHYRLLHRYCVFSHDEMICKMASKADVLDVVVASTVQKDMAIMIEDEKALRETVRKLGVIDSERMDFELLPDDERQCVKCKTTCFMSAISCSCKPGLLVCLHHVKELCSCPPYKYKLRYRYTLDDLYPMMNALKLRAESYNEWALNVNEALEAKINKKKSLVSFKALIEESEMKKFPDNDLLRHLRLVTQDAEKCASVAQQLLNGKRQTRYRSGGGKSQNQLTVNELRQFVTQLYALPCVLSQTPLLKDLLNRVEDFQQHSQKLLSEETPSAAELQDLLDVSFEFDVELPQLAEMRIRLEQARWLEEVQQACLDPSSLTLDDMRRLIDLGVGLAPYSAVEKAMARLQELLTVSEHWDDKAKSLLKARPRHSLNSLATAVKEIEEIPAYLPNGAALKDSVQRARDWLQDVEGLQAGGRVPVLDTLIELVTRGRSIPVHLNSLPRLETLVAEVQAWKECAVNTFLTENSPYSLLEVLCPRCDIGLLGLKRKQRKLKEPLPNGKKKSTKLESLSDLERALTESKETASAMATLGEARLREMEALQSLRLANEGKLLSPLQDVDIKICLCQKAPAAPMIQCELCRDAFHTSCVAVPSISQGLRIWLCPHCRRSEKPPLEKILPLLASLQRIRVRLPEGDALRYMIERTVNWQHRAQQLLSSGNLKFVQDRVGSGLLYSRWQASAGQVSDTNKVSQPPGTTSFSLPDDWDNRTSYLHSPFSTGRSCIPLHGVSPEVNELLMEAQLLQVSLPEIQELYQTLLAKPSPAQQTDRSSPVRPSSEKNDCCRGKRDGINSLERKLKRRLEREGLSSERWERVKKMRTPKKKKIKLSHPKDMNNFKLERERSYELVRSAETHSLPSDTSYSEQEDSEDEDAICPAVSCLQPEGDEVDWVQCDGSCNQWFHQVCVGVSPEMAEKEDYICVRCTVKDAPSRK
row,inhibition at 0.1 µM [%],SMILES
1,20 to 50,"O=c1[nH]c(COc2ccc(F)c(Cl)c2)nc2c(CNCc3cccs3)nccc12 [Example 181, 2-((3-chloro-4-fluorophenoxy)methyl)-8-(((thiophen-2-ylmethyl)amino)methyl)pyrido[3,4-d]pyrimidin-4(3H)-one]"
2,20 to 50,"CCCCN(CC)C(=O)CNCc1nccc2c(=O)[nH]c(COc3ccc(F)c(Cl)c3)nc12 [Example 222, N-butyl-2-(((2-((3-chloro-4-fluorophenoxy)methyl)-4-oxo-3,4-dihydropyrido[3,4-d]pyrimidin-8-yl)methyl)amino)-N-ethylacetamide]"
3,> 50,"O=c1[nH]c(COc2ccc(F)c(Cl)c2)nc2c(CNCC3CCN(CCO)CC3)nccc12 [Example 188, 2-((3-chloro-4-fluorophenoxy)methyl)-8-((((1-(2-hydroxyethyl)piperidin-4-yl)methyl)amino)methyl)pyrido[3,4-d]pyrimidin-4(3H)-one]"
4,20 to 50,"O=C1c2cccnc2CN1CCCNCc1nccc2c(=O)[nH]c(COc3ccc(F)c(Cl)c3)nc12 [Example 185, 2-((3-chloro-4-fluorophenoxy)methyl)-8-(((3-(5-oxo-5,7-dihydro-6H-pyrrolo[3,4-b]pyridin-6-yl)propyl)amino)methyl)pyrido[3,4-d]pyrimidin-4(3H)-one]"
5,> 50,"C[C@@H](Oc1ccc(Cc2ccccc2)cc1)c1nc2c(CNCC3CCN(C)CC3)nccc2c(=O)[nH]1 [Example 216, (R)-2-(1-(4-benzylphenoxy)ethyl)-8-((((1-methylpiperidin-4-yl)methyl)amino)methyl)pyrido[3,4-d]pyrimidin-4(3H)-one]"
6,> 50,"O=c1[nH]c(COCc2cccc(Cl)c2)nc2c(CNCC3CCNCC3)nccc12 [Example 206, 2-(((3-chlorobenzyl)oxy)methyl)-8-(((piperidin-4-ylmethyl)amino)methyl)pyrido[3,4-d]pyrimidin-4(3H)-one]"
7,> 50,"O=C(CNCc1nccc2c(=O)[nH]c(COc3ccc(F)c(Cl)c3)nc12)N[C@H]1CCCNC1 [Example 231, (S)-2-(((2-((3-chloro-4-fluorophenoxy)methyl)-4-oxo-3,4-dihydropyrido[3,4-d]pyrimidin-8-yl)methyl)amino)-N-(piperidin-3-yl)acetamide]"
8,< 20,"CC(Oc1ccc(Cc2ccccc2)cc1)c1nc2c(CNCC3CCN(C)CC3)nccc2c(=O)[nH]1 (stereo not drawn) [Example 211, 2-(1-(4-benzylphenoxy)ethyl)-8-((((1-methylpiperidin-4-yl)methyl)amino)methyl)pyrido[3,4-d]pyrimidin-4(3H)-one]"
9,20 to 50,"CN1CCC(CNCc2nccc3c(=O)[nH]c(C4CCc5ccccc5O4)nc23)CC1 (stereo not drawn) [Example 200, 2-(chroman-2-yl)-8-((((1-methylpiperidin-4-yl)methyl)amino)methyl)pyrido[3,4-d]pyrimidin-4(3H)-one]"
10,> 50,"CNC1CCN(C(=O)CNCc2nccc3c(=O)[nH]c(COc4ccc(F)c(Cl)c4)nc23)C1 (stereo not drawn) [Example 238, 2-((3-chloro-4-fluorophenoxy)methyl)-8-(((2-(3-(methylamino)pyrrolidin-1-yl)-2-oxoethyl)amino)methyl)pyrido[3,4-d]pyrimidin-4(3H)-one]"
11,< 20,"O=c1[nH]c(C2CCCO2)nc2c(CNCC3CCNCC3)nccc12 (stereo not drawn) [Example 193, 8-(((piperidin-4-ylmethyl)amino)methyl)-2-(tetrahydrofuran-2-yl)pyrido[3,4-d]pyrimidin-4(3H)-one]"
12,20 to 50,"O=c1[nH]c(COc2ccc(F)c(Cl)c2)nc2c(CNCc3ncco3)nccc12 [Example 179, 2-((3-chloro-4-fluorophenoxy)methyl)-8-(((oxazol-2-ylmethyl)amino)methyl)pyrido[3,4-d]pyrimidin-4(3H)-one]"
13,20 to 50,"CN1CCOC(CNCc2nccc3c(=O)[nH]c(COc4ccc(F)c(Cl)c4)nc23)C1 (stereo not drawn) [Example 178, 2-((3-chloro-4-fluorophenoxy)methyl)-8-((((4-methylmorpholin-2-yl)methyl)amino)methyl)pyrido[3,4-d]pyrimidin-4(3H)-one]"

# More lines, now with the values behind:
row,SMILES,inhibition at 0.1 µM [%]
1,"N#Cc1cccc(OCc2nc3c(CNCC4CCNCC4)nccc3c(=O)[nH]2)c1 [Example 138, 3-((4-oxo-8-(((piperidin-4-ylmethyl)amino)methyl)-3,4-dihydropyrido[3,4-d]pyrimidin-2-yl)methoxy)benzonitrile]",20 to 50
2,"N#Cc1ccc(OCc2nc3c(CNCC4CCNCC4)nccc3c(=O)[nH]2)cc1 [Example 129, 4-((4-oxo-8-(((piperidin-4-ylmethyl)amino)methyl)-3,4-dihydropyrido[3,4-d]pyrimidin-2-yl)methoxy)benzonitrile]",20 to 50
3,"O=c1[nH]cnc2c(CNCC3CCCN(Cc4ccccc4)C3)nccc12 (stereo not drawn) [Example 101, 8-((((1-benzylpiperidin-3-yl)methyl)amino)methyl)pyrido[3,4-d]pyrimidin-4(3H)-one]",20 to 50
4,"O=c1[nH]c(COc2ccc(F)c(Cl)c2)nc2c(CNCC3CCNCC3)nccc12 [Example 126, 2-((3-chloro-4-fluorophenoxy)methyl)-8-(((piperidin-4-ylmethyl)amino)methyl)pyrido[3,4-d]pyrimidin-4(3H)-one]",> 50
5,"O=c1[nH]c(COc2ccc(Cc3ccccc3)cc2)nc2c(CNCC3CCNCC3)nccc12 [Example 121, 2-((4-benzylphenoxy)methyl)-8-(((piperidin-4-ylmethyl)amino)methyl)pyrido[3,4-d]pyrimidin-4(3H)-one]",> 50
6,"O=c1[nH]c(COc2ccc(F)c(Cl)c2)nc2c(CNCC3CCN(C4CCCC4)CC3)nccc12 [Example 169, 2-((3-chloro-4-fluorophenoxy)methyl)-8-((((1-cyclopentylpiperidin-4-yl)methyl)amino)methyl)pyrido[3,4-d]pyrimidin-4(3H)-one]",> 50
7,"O=c1[nH]c(COc2ccc(Cc3ccccc3)cc2)nc2c(CNCC3CCN(Cc4ccccc4)CC3)nccc12 [Example 111, 2-((4-benzylphenoxy)methyl)-8-((((1-benzylpiperidin-4-yl)methyl)amino)methyl)pyrido[3,4-d]pyrimidin-4(3H)-one]",> 50
8,"COc1cc(OCc2nc3cnccc3c(=O)[nH]2)cc(OC)c1OC [Example 39, 2-((3,4,5-trimethoxyphenoxy)methyl)pyrido[3,4-d]pyrimidin-4(3H)-one]",< 20
9,"CN1CCCC(CNCc2nccc3c(=O)[nH]cnc23)C1 (stereo not drawn) [Example 100, 8-((((1-methylpiperidin-3-yl)methyl)amino)methyl)pyrido[3,4-d]pyrimidin-4(3H)-one]",> 50
10,"CC(c1ccccc1)c1ccc(OCc2nc3c(CNCC4CCNCC4)nccc3c(=O)[nH]2)cc1 (stereo not drawn) [Example 141, 2-((4-(1-phenylethyl)phenoxy)methyl)-8-(((piperidin-4-ylmethyl)amino)methyl)pyrido[3,4-d]pyrimidin-4(3H)-one]",20 to 50
11,"O=c1[nH]c(COc2cccc(CNCc3ccccc3)c2)nc2cnccc12 [Example 42, 2-((3-((benzylamino)methyl)phenoxy)methyl)pyrido[3,4-d]pyrimidin-4(3H)-one]",< 20
12,"O=c1[nH]c(COc2ccc(F)c(Cl)c2)nc2c(CNCC3CCOCC3)nccc12 [Example 161, 2-((3-chloro-4-fluorophenoxy)methyl)-8-((((tetrahydro-2H-pyran-4-yl)methyl)amino)methyl)pyrido[3,4-d]pyrimidin-4(3H)-one]",< 20
13,"O=c1[nH]c(COc2ccc(Cc3ccccc3)cc2)nc2c(CNC[C@@H]3CCCNC3)nccc12 [Example 154, (R)-2-((4-benzylphenoxy)methyl)-8-(((piperidin-3-ylmethyl)amino)methyl)pyrido[3,4-d]pyrimidin-4(3H)-one]",> 50
14,"CN1CCC(CNCc2nccc3c(=O)[nH]c(COc4ccc(F)c(Cl)c4)nc23)CC1 [Example 160, 2-((3-chloro-4-fluorophenoxy)methyl)-8-((((1-methylpiperidin-4-yl)methyl)amino)methyl)pyrido[3,4-d]pyrimidin-4(3H)-one]",> 50
